Results taken from patent US11161856B2 (H. Lundbeck A/S, priority 2017, dated 2021).

Experiments:
Assay type in all cases: biochemical
MGLL = molecular target: T1, MGLL (Mus musculus, UniProt O35678); assay: In vitro competitive activity-based protein profiling, mouse brain proteome (MGLL); set-up: IC50 MGLL Brain (Mouse, μM): scale not given here; settings: for % Inh MGLL Brain (Mouse, μM): concentration not given (μM)
T1 construct: Brain; from tissue; host or cells: mouse brain proteome
T1 sequence (O35678 1-303): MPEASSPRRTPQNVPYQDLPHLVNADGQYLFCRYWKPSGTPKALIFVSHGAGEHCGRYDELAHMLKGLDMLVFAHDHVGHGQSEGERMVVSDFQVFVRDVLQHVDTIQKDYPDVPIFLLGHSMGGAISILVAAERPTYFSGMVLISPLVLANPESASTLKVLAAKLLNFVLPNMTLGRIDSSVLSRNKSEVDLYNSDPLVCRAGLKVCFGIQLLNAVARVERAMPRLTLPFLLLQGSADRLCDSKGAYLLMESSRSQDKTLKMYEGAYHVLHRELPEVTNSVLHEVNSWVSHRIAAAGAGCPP

ABHD6 = molecular target: T2, ABHD6 (Mus musculus, UniProt Q8R2Y0); assay: In vitro competitive activity-based protein profiling, mouse brain proteome (ABHD6); settings: mouse brain proteome; concentration not given (μM)
T2 construct: Brain; from tissue; host or cells: mouse brain proteome
T2 sequence (Q8R2Y0 1-336): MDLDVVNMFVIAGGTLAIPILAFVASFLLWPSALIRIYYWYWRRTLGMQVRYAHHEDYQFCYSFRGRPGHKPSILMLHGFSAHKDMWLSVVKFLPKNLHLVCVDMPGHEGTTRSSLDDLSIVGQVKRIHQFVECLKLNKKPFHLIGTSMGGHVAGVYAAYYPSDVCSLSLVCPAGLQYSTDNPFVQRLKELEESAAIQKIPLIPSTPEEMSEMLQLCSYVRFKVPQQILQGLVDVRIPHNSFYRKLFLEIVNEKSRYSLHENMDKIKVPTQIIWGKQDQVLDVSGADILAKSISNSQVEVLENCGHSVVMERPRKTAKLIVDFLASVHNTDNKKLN
Description: [The source words this procedure for another target and reports this target under the same test.] In Vitro Competitive Activity-Based Protein Profiling.
Proteomes (human prefrontal cortex or cell membrane fractions) (50 μL, 1.0 mg/mL total protein concentration) were preincubated with varying concentrations of inhibitors at 37° C. After 30 min, FP-Rh or HT-01 (1.0 μL, 50 μM in DMSO) was added and the mixture was incubated for another 30 min at room temperature. Reactions were quenched with SDS loading buffer (15 μL-4×) and run on SDS-PAGE.

MAGL = molecular target: T3, MAGL (Homo sapiens, UniProt Q99685); assay: In vitro competitive activity-based protein profiling (FP-Rh or HT-01 probe, gel-based); set-up: IC50 MGLL PC3 (Human, μM) / IC50 MGLL PFC (Human, μM): scale not given here; settings: for IC50 MGLL PC3 (Human, μM) / % Inh MGLL PC3 (Human, μM): PC3 cell proteome; for % Inh MGLL PC3 (Human, μM) / % Inh MGLL PFC (Human, μM): concentration not given (μM); for % Inh MGLL PFC (Human, μM) / IC50 MGLL PFC (Human, μM): prefrontal cortex (PFC) proteome
T3 construct: Proteomes (human prefrontal cortex or cell membrane fractions); from tissue
T3 sequence (Q99685 1-303): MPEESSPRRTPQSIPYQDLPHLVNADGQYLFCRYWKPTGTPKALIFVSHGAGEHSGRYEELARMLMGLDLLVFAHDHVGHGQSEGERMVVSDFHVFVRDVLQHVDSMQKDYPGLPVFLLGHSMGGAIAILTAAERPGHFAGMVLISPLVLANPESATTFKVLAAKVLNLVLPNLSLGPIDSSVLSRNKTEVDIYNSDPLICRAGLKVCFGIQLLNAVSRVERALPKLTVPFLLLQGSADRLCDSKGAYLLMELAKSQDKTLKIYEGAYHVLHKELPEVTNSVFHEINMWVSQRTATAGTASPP
Method in brief: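 Human prefrontal cortex or cell membrane proteomes (1.0 mg/mL total protein) were preincubated with varying inhibitor concentrations for 30 min at 37° C. FP-Rh or HT-01 probe (50 μM DMSO stock) was then added for 30 min at room temperature, and samples were quenched in SDS loading buffer and resolved by SDS-PAGE.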

Compound	% Inh MGLL Brain (Mouse, μM) (MGLL)	% Inh ABHD6 Brain (Mouse, μM) (ABHD6)	IC50 MGLL PC3 (Human, μM) (MAGL)	% Inh MGLL PC3 (Human, μM) (MAGL)	% Inh MGLL PFC (Human, μM) (MAGL)	IC50 MGLL Brain (Mouse, μM) (MGLL)	IC50 MGLL PFC (Human, μM) (MAGL)
O=C(O)C1CN(c2cc(C(F)(F)F)ccc2CN2CC3(CCN(C(=O)OC(C(F)(F)F)C(F)(F)F)CC3)C2)CCO1 (stereo not shown) [Example 20, 4-(2-((7-(((1,1,1,3,3,3-Hexafluoropropan-2-yl)oxy)carbonyl)-2,7-diazaspiro[3.5]nonan-2-yl)methyl)-5-(trifluoromethyl)phenyl)morpholine-2-carboxylic acid]	### (### is ≥75%)	## (## is between 25 and 75%)	* * *	–	### (### is ≥75%)	* * *	* * *
O=C(O)C1COCCN1c1cc(C(F)(F)F)ccc1CN1CC2(CCN(C(=O)OC(C(F)(F)F)C(F)(F)F)CC2)C1 (stereo not shown) [Example 113, 4-(2-((7-(((1,1,1,3,3,3-Hexafluoropropan-2-yl)oxy)carbonyl)-2,7-diazaspiro[3.5]nonan-2-yl)methyl)-5-(trifluoromethyl)phenyl)moiph oline-3-carboxylic acid]	## (## is between 25 and 75%)	# (# is ≤25%)	–	–	# (# is ≤25%)	–	–
N#Cc1ccc(C(=O)N2CCC3(CCN(C(=O)OC(C(F)(F)F)C(F)(F)F)CC3)C2)cc1C(F)(F)F [Example 12, 1,1,1,3,3,3-Hexafluoropropan-2-yl 2-(4-cyano-3-(trifluoromethyl)benzoyl)-2,8-diazaspiro[4.5]decane-8-carboxylate]	### (### is ≥75%)	### (### is ≥75%)	* * *	–	### (### is ≥75%)	–	–
CN(Cc1ccc(C(F)(F)F)cc1N1CCOC(C(=O)O)C1)C1(C)CCN(C(=O)OC(C(F)(F)F)C(F)(F)F)CC1 (stereo not shown) [Example 108, 4-(2-(((1-(((1,1,1,3,3,3-Hexafluoropropan-2-yl)oxy)carbonyl)-4-methylpiperidin-4-yl)(methyl)amino)methyl)-5-(trifluoromethyl)phenyl) morpholine-2-carboxylic acid]	### (### is ≥75%)	## (## is between 25 and 75%)	–	–	### (### is ≥75%)	–	–
O=C(O)CN1CC2CC1CN2c1cc(C(F)(F)F)ccc1CN1CC2(CCN(C(=O)OC(C(F)(F)F)C(F)(F)F)CC2)C1 (stereo not shown) [Example 127, 2-(5-{2-[(7-{[(1,1,1,3,3,3-Hexafluoropropan-2-yl)oxy]carbonyl}-2,7-diazaspiro[3.5]nonan-2-yl)methyl]-5-(trifluoromethyl)phenyl}-2,5-diazabicyclo[2.2.1]heptan-2-yl)acetic acid]	### (### is ≥75%)	### (### is ≥75%)	–	–	### (### is ≥75%)	–	–
CN(Cc1ccc(C(F)(F)F)cc1N1CCN(CC(=O)O)CC1)C1(C)CCN(C(=O)OC(C(F)(F)F)C(F)(F)F)CC1 [Example 26, 2-(4-(2-(((1-(((1,1,1,3,3,3-Hexafluoropropan-2-yl)oxy)carbonyl)-4-methylpiperidin-4-yl)(methyl)amino)methyl)-5-(trifluoromethyl)phenyl)piperazin-1-yl)acetic acid]	### (### is ≥75%)	### (### is ≥75%)	* * *	### (### is ≥75%)	–	–	* * *
O=C(OC(C(F)(F)F)C(F)(F)F)N1CCC2(CC1)CCN(C(=O)c1ccc(C(F)(F)F)c(Cl)c1)C2 [Example 109, 1,1,1,3,3,3-Hexafluoropropan-2-yl 2-(3-chloro-4-(trifluoromethyl)benzoyl)-2,8-diazaspiro[4.5]decane-8-carboxylate]	### (### is ≥75%)	### (### is ≥75%)	–	–	### (### is ≥75%)	–	–

Now from value to molecule:

% Inh MGLL Brain (Mouse, μM) (MGLL)	% Inh ABHD6 Brain (Mouse, μM) (ABHD6)	IC50 MGLL PC3 (Human, μM) (MAGL)	% Inh MGLL PC3 (Human, μM) (MAGL)	% Inh MGLL PFC (Human, μM) (MAGL)	IC50 MGLL Brain (Mouse, μM) (MGLL)	IC50 MGLL PFC (Human, μM) (MAGL)	Compound
### (### is ≥75%)	# (# is ≤25%)	* * *	### (### is ≥75%)	–	–	–	O=C(OC(C(F)(F)F)C(F)(F)F)N1CCC2(CCCN2Cc2cc(F)cc(C3(C(=O)O)CCCC3)c2)CC1 [Example 4, 1-(3-Fluoro-5-((8-(((1,1,1,3,3,3-hexafluoropropan-2-yl)oxy)carbonyl)-1,8-diazaspiro[4.5]decan-1-yl)methyl)phenyl)cyclopentane-1-carboxylic acid]
### (### is ≥75%)	# (# is ≤25%)	–	### (### is ≥75%)	–	–	–	CN(Cc1ccc(Cl)cc1C1(C(=O)O)CCCC1)C1(C)CCN(C(=O)OC(C(F)(F)F)C(F)(F)F)CC1 [Example 142, 1-(5-Chloro-2-{[(1-{[(1,1,1,3,3,3-hexafluoropropan-2-yl)oxy]carbonyl}-4-methylpiperidin-4-yl)(methyl)amino]methyl}phenyl)cyclopentane-1-carboxylic acid]
### (### is ≥75%)	# (# is ≤25%)	–	### (### is ≥75%)	–	–	–	CC(C)(C#Cc1c(F)cccc1CN1CCCC12CCN(C(=O)OC(C(F)(F)F)C(F)(F)F)CC2)C(=O)O [Example 147, 4-{2-Fluoro-6-[(8-{[(1,1,1,3,3,3-hexafluoropropan-2-yl)oxy]carbonyl}-1,8-diazaspiro[4.5]decan-1-yl)methyl]phenyl}-2,2-dimethylbut-3-ynoic acid]
### (### is ≥75%)	## (## is between 25 and 75%)	–	–	### (### is ≥75%)	–	–	O=C(O)C1CCN(c2cc(F)cc(CN3CC4(CCN(C(=O)OC(C(F)(F)F)C(F)(F)F)CC4)C3)c2)CC1 [Example 117, 1-(3-Fluoro-5-((7-(((1,1,1,3,3,3-hexafluoropropan-2-yl)oxy)carbonyl)-2,7-diazaspiro[3.5]nonan-2-yl)methyl)phenyl)piperidine-4-carboxylic acid]
### (### is ≥75%)	### (### is ≥75%)	–	### (### is ≥75%)	–	–	–	CN(Cc1cc(C(F)(F)F)cc(C2(C(=O)O)CCCC2)c1)C1(C)CCN(C(=O)OC(C(F)(F)F)C(F)(F)F)CC1 [Example 138, l-(3-{[(1-{[(1,1,1,3,3,3-Hexafluoropropan-2-yl)oxy]carbonyl}-4-methylpiperidin-4-yl)(methyl)ainino]methyl}-5-(trifluoromethyl)phenyl)cyclop entane-1-carboxylic acid]
### (### is ≥75%)	### (### is ≥75%)	–	–	### (### is ≥75%)	–	–	O=C(O)[C@H]1CCCN(c2cc(C(F)(F)F)ccc2CN2CC3(CCN(C(=O)OC(C(F)(F)F)C(F)(F)F)CC3)C2)C1 [Example 111, (S)-1-(2-((7-(((1,1,1,3,3,3-hexafluoropropan-2-yl)oxy)carbonyl)-2,7-diazaspiro[3,5]nonan-2-yl)methyl)-5-(trifluoromethyl)phenyl) piperidine-3-carboxylic acid]
### (### is ≥75%)	# (# is ≤25%)	–	–	### (### is ≥75%)	–	–	O=C(O)CN1CCC2(CCN(c3cc(C(F)(F)F)ccc3CN3CCCC34CCN(C(=O)OC(C(F)(F)F)C(F)(F)F)CC4)CC2)C1 [Example 153, 2-(8-(2-((8-(((1,1,1,3,3,3-Hexafluoropropan-2-yl)oxy)carbonyl)-1,8-diazaspiro[4.5]decan-1-yl)methyl)-5-(trifluoromethyl)phenyl)-2,8-diazaspiro[4.5]decan-2-yl)acetic acid]
